Laboratory results from patent US8722043B2, “Induction of p53 expression by neutralization of neuropilin-2 for the treatment of cancers” (Diaclone, priority 2008, dated 2014).

Columns and labels:
Assay type in all cases: cell-based, human
NRP-2 protein = experiment: NRP-2 expression after siRNA transfection (flow cytometry, C9 antibody); conditions: Colo320 cells transfected with pFiv H1/U6puro siRNA-NRP-2, from D7
Protocol: The Colo320 line naturally expressing neuropilin-2 at its membrane surface was transfected with the plasmid pFiv H1/U6puro siRNA-NRP-2 using the Effectene® kit, Qiagen). In parallel, Colo320 cells were transfected with a control siRNA (siRNA-ctrl) provided with the pFiv H1/U6puro SiRNA expression vector kit (System Biosciences). The Colo320^siRNA-NRP-2 and Colo320^siRNA-ctrl transfected cells were then selected at D2 with 2 μg/ml of puromycin. The efficiency of the transfection was evaluated from D7 onwards by labelling with a murine anti-human NRP-2 IgG antibody (Clone C9, Santa Cruz Biotechnology) by flow cytometry: the results obtained are represented in FIG. 3.
For each of the panels of FIG. 3, the number of events (the number of cells) is indicated on the y-axis, the fluorescence intensity (corresponding to the label of the cells with the anti-NRP-2 antibody C9) is represented on the x-axis. The distribution curves in black lines represent the results obtained after labelling with a control antibody, the distribution curves in grey lines represent the results obtained after labelling with the C9 antibody.

Colo320 cells = experiment: MTT proliferation assay in the presence of siRNA-NRP-2; conditions: Colo320^siRNA-NRP-2 versus Colo320^siRNA-ctrl; 24, 48 and 72 hours
Protocol: The MTT proliferation assay is based on the reduction of 3-(4,5-dimethylthiazol-2-yl)-2,5-diphenyltetrazolium bromide), by the mitochondrial succinate dehydrogenase of active live cells, to give formazan. The coloration intensity (OD) induced by this reaction is proportional to the number of live cells present during the assay, and to the metabolic activity thereof.
4000 HT29ctrl, HT29-NRP-2, Colo320^siRNA-ctrl or Colo320^siRNA-NRP-2 cells were seeded into a 96-well Maxisorp plate, in 100 μl of DMEM medium containing 10% of inactivated FCS. The assay was carried out in triplicate. At 24, 48 and 72 hours, respectively, 10 μl of MTT at 5 mg/ml were added to each well. After 2 hours of incubation at 37° C., 5% CO2, 200 μl of DMSO were added to each well after shaking, and the OD was read at 570 nm using a spectrophotometer. The results of these experiments are represented in FIG. 4.
FIGS. 4.A and 4.B are histograms representing the results obtained in the proliferation assay carried out respectively with the HT29ctrl and HT29-NRP-2 cells and with the Colo320^siRNA-ctrl and Colo320^siRNA-NRP-2 cells. The coloration intensity (the optical density “OD”) corresponding to the production of formazan by the cells is indicated on the y-axis, and the times at which the viability tests were carried out are indicated on the x-axis. […]

p53 protein = experiment: p53 expression in Colo320 cells expressing siRNA-NRP-2 (flow cytometry, Western blotting); conditions: Colo320^siRNA-NRP-2 versus Colo320^siRNA-ctrl
Description: FIG. 7 represents the results obtained by flow cytometry for the HT29-ctrl (panel A), HT29-NRP-2 (panel B), Colo320^siRNA-ctrl (panel C) and Colo320^siRNA-NRP-2 (panel D) cells labelled with an anti-p53 antibody. The curves in black lines represent the results of the labelling with a control antibody, and the curves in grey lines represent the results of the labelling with the anti-p53 antibody. The number of events (the number of cells) is indicated on the y-axis, the fluorescence intensity (corresponding to the labelling of the cells with the anti-p53 antibody) is represented on the x-axis.
The protein extracts of the HT29-ctrl, HT29-NRP-2, Colo320^siRNA-ctrl and Colo320^siRNA-NRP-2 lines were also analysed by Western blotting using an anti-p53 antibody. After lysis of the cell lines, migration of the protein pellets obtained on a 10% polyacrylamide gel (10 μg of protein per well, standardized relative to the immunoblotting of actin), and then transfer onto a PVDF membrane, the PVDF membrane was incubated overnight with the p53 primary antibody (BD Biosciences, mouse anti-human p53) diluted to 1/500. The membranes, after washing in TBS/0.1% Tween20, were incubated for 1 hour with an anti-mouse HRP secondary antibody diluted to 1/12 500. The results are represented in FIG. 8.

siRNA-NRP-2: double-stranded siRNA directed against the NRP-2 transcripts, sense SEQ ID No. 31, antisense SEQ ID No. 32, expressed from plasmid (sense GGCUGGAAGUCAGCACUAAUUU; antisense AUUAGUGCUGACUUCCAGCCUU)
expression of the NRP-2 protein (NRP-2 protein): efficiently inhibited | proliferation and survival (OD at 570 nm) (Colo320 cells): OD decreases | p53 expression (Western blotting) (p53 protein): strongly expressed | p53 expression (flow cytometry) (p53 protein): restoration of p53 expression
